Test results published in patent US20210253557A1, “SUBSTITUTED TRIAZOLE DERIVATIVES AND USES THEREOF” (Bayer Pharma Aktiengesellschaft, priority 2017, published 2021).
Where a name gives a salt, the structure may show the parent alone.

Assays:
[1] = target: T1, human V1a receptor (Homo sapiens, UniProt P37288); test: Cellular in vitro assay for determining vasopressin receptor activity (V1a, aequorin luminescence); format: cell-based; settings: for IC50: CHO cell line transfected with the human V1a receptor, [Arg8]-vasopressin at EC50 concentration, read-out: IC50 hV1a; for ratio IC50 hV2/hV1a: selectivity ratio of IC50 hV2 to IC50 hV1a
T1 construct: expressed in transfected cells; host or cells: CHO K1 (ATCC), also stably transfected with a modified aequorin
T1 sequence (P37288 whole entry): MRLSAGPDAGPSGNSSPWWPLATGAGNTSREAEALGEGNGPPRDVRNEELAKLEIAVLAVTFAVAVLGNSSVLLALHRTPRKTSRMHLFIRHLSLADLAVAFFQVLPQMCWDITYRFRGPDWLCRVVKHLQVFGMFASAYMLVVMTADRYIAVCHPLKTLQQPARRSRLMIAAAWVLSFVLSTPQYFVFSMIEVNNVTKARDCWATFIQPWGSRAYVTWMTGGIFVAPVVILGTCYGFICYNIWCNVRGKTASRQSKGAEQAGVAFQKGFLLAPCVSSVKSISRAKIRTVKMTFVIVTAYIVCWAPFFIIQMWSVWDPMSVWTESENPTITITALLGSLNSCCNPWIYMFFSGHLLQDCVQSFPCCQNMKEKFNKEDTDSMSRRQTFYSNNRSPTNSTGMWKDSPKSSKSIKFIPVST

[2] = target: T2, human V2 receptor (Homo sapiens, UniProt P30518); test: Cellular in vitro assay for determining vasopressin receptor activity (V2, CRE-luciferase); format: cell-based; settings: CHO cell line transfected with the human V2 receptor; [Arg8]-vasopressin at EC50 concentration; read-out: IC50 hV2
T2 construct: expressed in transfected cells; host or cells: CHO K1 (ATCC) expressing firefly luciferase under a CRE-responsive promoter
T2 sequence (P30518 whole entry): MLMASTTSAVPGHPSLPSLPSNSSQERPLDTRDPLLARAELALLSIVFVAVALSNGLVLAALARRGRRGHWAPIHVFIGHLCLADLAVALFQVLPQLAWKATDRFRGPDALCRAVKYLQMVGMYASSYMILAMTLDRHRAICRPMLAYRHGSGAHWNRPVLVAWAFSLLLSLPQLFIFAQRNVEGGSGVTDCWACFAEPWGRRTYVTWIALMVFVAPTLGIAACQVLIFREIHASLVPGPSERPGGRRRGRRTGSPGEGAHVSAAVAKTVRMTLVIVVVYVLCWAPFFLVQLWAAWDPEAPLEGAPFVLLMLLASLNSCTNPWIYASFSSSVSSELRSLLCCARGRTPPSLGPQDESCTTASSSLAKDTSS
In short: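 CHO K1 cells stably expressing the human V2 receptor and a CRE-driven firefly luciferase were plated the day before in DMEM/F12 with 2% FCS. Test compounds were added together with [Arg8]-vasopressin at its EC50 and incubated 3 h at 37 °C. Luciferase luminescence was read after Triton lysis and luciferin addition, giving IC50 values.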

IC50 [1]	ratio IC50 hV2/hV1a [1]	IC50 [2]	Compound
0.95 nM	23.0	22 nM	CCNC(=O)OCc1nc(Cn2nc(-c3ccc(Cl)cc3)n(C[C@H](OC(=O)NCC)C(F)(F)F)c2=O)nn1-c1ccccc1C(F)(F)F [Example 50, (2S)-3-{3-(4-Chlorophenyl)-1-[(5-{[(ethylcarbamoyl)oxy]methyl}-1-[2-(trifluoromethyl)phenyl]-1H-1,2,4-triazol-3-yl)methyl]-5-oxo-1,5-dihydro-4H-1,2,4-triazol-4-yl}-1,1,1-trifluoropropan-2-yl ethylcarbamate]
39 nM	10.5	408 nM	CC(=O)NC(C)c1nc(Cn2nc(-c3ccc(Cl)cc3)n(C[C@H](O)C(F)(F)F)c2=O)nn1-c1ncccc1Cl (single isomer, unassigned) [Example 109]
4.33 nM	20.2	87.5 nM	O=C1NC(c2nc(Cn3nc(-c4ccc(Cl)cc4)n(C[C@H](O)C(F)(F)F)c3=O)nn2-c2ccccc2Cl)CO1 (single isomer, unassigned) [Example 100]
0.99 nM	3.7	3.63 nM	C[C@H](OC(N)=O)c1nc(Cn2nc(-c3ccc(Cl)cc3)n(C[C@H](O)C(F)(F)F)c2=O)nn1-c1ccccc1Cl [Example 33, (1S)-1-[1-(2-Chlorophenyl)-3-({3-(4-chlorophenyl)-5-oxo-4-[(2S)-3,3,3-trifluoro-2-hydroxypropyl]-4,5-dihydro-1H-1,2,4-triazol-1-yl}methyl)-1H-1,2,4-triazol-5-yl]ethyl Carbamate]
2.1 nM	24.3	51 nM	CN1C(=O)CC[C@@H]1c1nc(Cn2nc(-c3ccc(Cl)cc3)n(C[C@H](O)C(F)(F)F)c2=O)nn1-c1ncccc1Cl (single isomer, unassigned) [Example 105]
0.25 nM	4.8	1.2 nM	O=C1CC[C@@H](c2nc(Cn3nc(-c4ccc(Cl)cc4)n(C[C@H](O)C(F)(F)F)c3=O)nn2-c2ccccc2Cl)N1 [Example 102, 5-(4-Chlorophenyl)-2-({1-(2-chlorophenyl)-5-[(2S)-5-oxopyrrolidin-2-yl]-1H-1,2,4-triazol-3-yl}methyl)-4-[(2S)-3,3,3-trifluoro-2-hydroxypropyl]-2,4-dihydro-3H-1,2,4-triazol-3-one]
64 nM	9.3	595 nM	CNc1ccncc1-n1nc(Cn2nc(-c3ccc(Cl)cc3)n(C[C@H](O)C(F)(F)F)c2=O)nc1C(C)NC(C)=O (mixture of isomers) [Example 125, N-[1-{3-({3-(4-Chlorophenyl)-5-oxo-4-[(2S)-3,3,3-trifluoro-2-hydroxypropyl]-4,5-dihydro-1H-1,2,4-triazol-1-yl}methyl)-1-[4-(methylamino)pyridin-3-yl]-1H-1,2,4-triazol-5-yl}ethyl]acetamide hydrochloride]
1.55 nM	40.7	63 nM	C[C@H](OC(N)=O)c1nc(Cn2nc(-c3ccc(Cl)cc3)n(C[C@H](O)C(F)(F)F)c2=O)nn1-c1c(Cl)cncc1Cl [Example 19, (1S)-1-[3-({3-(4-Chlorophenyl)-5-oxo-4-[(2S)-3,3,3-trifluoro-2-hydroxypropyl]-4,5-dihydro-1H-1,2,4-triazol-1-yl}methyl)-1-(3,5-dichloropyridin-4-yl)-1H-1,2,4-triazol-5-yl]ethyl Carbamate]
1.78 nM	1.8	3.11 nM	COc1ccccc1-n1nc(Cn2nc(-c3ccc(Cl)cc3)n(C[C@H](O)C(F)(F)F)c2=O)nc1COC(N)=O [Example 27, [3-({3-(4-Chlorophenyl)-5-oxo-4-[(2S)-3,3,3-trifluoro-2-hydroxypropyl]-4,5-dihydro-1H-1,2,4-triazol-1-yl}methyl)-1-(2-methoxyphenyl)-1H-1,2,4-triazol-5-yl]methyl Carbamate]
1380 nM	0.9	1260 nM	CNc1ccncc1-n1nc(Cn2nc(-c3ccc(Cl)cc3)n(C[C@H](O)C(F)(F)F)c2=O)nc1C(C)NC(C)=O (single isomer, unassigned) [Example 126]
7.7 nM	3.9	30 nM	C[C@H](OC(N)=O)c1nc(Cn2nc(-c3ccc(Cl)cc3)n(C[C@H](O)C(F)(F)F)c2=O)nn1-c1ccncc1Cl [Example 18, (1S)-1-[3-({3-(4-Chlorophenyl)-5-oxo-4-[(2S)-3,3,3-trifluoro-2-hydroxypropyl]-4,5-dihydro-1H-1,2,4-triazol-1-yl}methyl)-1-(3-chloropyridin-4-yl)-1H-1,2,4-triazol-5-yl]ethyl Carbamate]
9.95 nM	14.4	144 nM	C[C@H](OC(N)=O)c1nc(Cn2nc(-c3ccc(Cl)cc3)n(C[C@H](O)C(F)(F)F)c2=O)nn1-c1ncccc1OC(F)(F)F [Example 22, (1S)-1-{3-({3-(4-Chlorophenyl)-5-oxo-4-[(2S)-3,3,3-trifluoro-2-hydroxypropyl]-4,5-dihydro-1H-1,2,4-triazol-1-yl}methyl)-1-[3-(trifluoromethoxy)pyridin-2-yl]-1H-1,2,4-triazol-5-yl}ethyl Carbamate]
22.7 nM	23.2	525 nM	O=C1NC(c2nc(Cn3nc(-c4ccc(Cl)cc4)n(C[C@H](O)C(F)(F)F)c3=O)nn2-c2ncccc2Cl)CO1 (single isomer, unassigned) [Example 114]
0.67 nM	9.9	6.63 nM	CN1C(=O)CCC1c1nc(Cn2nc(-c3ccc(Cl)cc3)n(C[C@H](O)C(F)(F)F)c2=O)nn1-c1ccccc1Cl (single isomer, unassigned) [Example 72]
5.1 nM	3.4	17.5 nM	CC(=O)NC(CO)c1nc(Cn2nc(-c3ccc(Cl)cc3)n(C[C@H](O)C(F)(F)F)c2=O)nn1-c1ccccc1Cl (single isomer, unassigned) [Example 92]
94.5 nM	22.8	2150 nM	CC(N)c1nc(Cn2nc(-c3ccc(Cl)cc3)n(C[C@H](O)C(F)(F)F)c2=O)nn1-c1ncccn1 (mixture of isomers) [Example 128, 2-({5-[1-Aminoethyl]-1-(pyrimidin-2-yl)-1H-1,2,4-triazol-3-yl}methyl)-5-(4-chlorophenyl)-4-[(2S)-3,3,3-trifluoro-2-hydroxypropyl]-2,4-dihydro-3H-1,2,4-triazol-3-one hydrochloride]
160 nM	0.3	52.5 nM	C[C@H](OC(N)=O)c1nc(Cn2nc(-c3ccc(Cl)cc3)n(C[C@H](O)C(F)(F)F)c2=O)nn1-c1ccc(Cl)cn1 [Example 16, (1S)-1-[3-({3-(4-Chlorophenyl)-5-oxo-4-[(2S)-3,3,3-trifluoro-2-hydroxypropyl]-4,5-dihydro-1H-1,2,4-triazol-1-yl}methyl)-1-(5-chloropyridin-2-yl)-1H-1,2,4-triazol-5-yl]ethyl Carbamate]
3.75 nM	14.0	52.5 nM	CC(=O)NC(C)c1nc(Cn2nc(-c3ccc(Cl)cc3)n(C[C@H](O)C(F)(F)F)c2=O)nn1-c1ccccc1Cl (single isomer, unassigned) [Example 66]
0.48 nM	8.3	3.95 nM	NC1(c2nc(Cn3nc(-c4ccc(Cl)cc4)n(C[C@H](O)C(F)(F)F)c3=O)nn2-c2ccccc2Cl)CC1 [Example 76, 2-{[5-(1-Aminocyclopropyl)-1-(2-chlorophenyl)-1H-1,2,4-triazol-3-yl]methyl}-5-(4-chlorophenyl)-4-[(2S)-3,3,3-trifluoro-2-hydroxypropyl]-2,4-dihydro-3H-1,2,4-triazol-3-one hydrochloride]
1.6 nM	4.4	7.05 nM	C[C@H](OC(N)=O)c1nc(Cn2nc(-c3ccc(Cl)cc3)n(C[C@H](O)C(F)(F)F)c2=O)nn1-c1ccccc1OC(F)F [Example 5, (1S)-1-{3-({3-(4-Chlorophenyl)-5-oxo-4-[(2S)-3,3,3-trifluoro-2-hydroxypropyl]-4,5-dihydro-1H-1,2,4-triazol-1-yl}methyl)-1-[2-(difluoromethoxy)phenyl]-1H-1,2,4-triazol-5-yl}ethyl Carbamate]
1.19 nM	2.3	2.74 nM	Cc1ccccc1-n1nc(Cn2nc(-c3ccc(Cl)cc3)n(C[C@H](O)C(F)(F)F)c2=O)nc1C(C)N (mixture of isomers) [Example 59, 2-({5-[1-Aminoethyl]-1-(2-methylphenyl)-1H-1,2,4-triazol-3-yl}methyl)-5-(4-chlorophenyl)-4-[(2S)-3,3,3-trifluoro-2-hydroxypropyl]-2,4-dihydro-3H-1,2,4-triazol-3-one trifluoroacetate]

Compound	IC50 [1]	ratio IC50 hV2/hV1a [1]	IC50 [2]
CC(C)(C)OCC(NS(C)(=O)=O)c1nc(Cn2nc(-c3ccc(Cl)cc3)n(C[C@H](O)C(F)(F)F)c2=O)nn1-c1ccccc1Cl (mixture of isomers) [Example 82, N-{2-tert-Butoxy-1-[1-(2-chlorophenyl)-3-({3-(4-chlorophenyl)-5-oxo-4-[(2S)-3,3,3-trifluoro-2-hydroxypropyl]-4,5-dihydro-1H-1,2,4-triazol-1-yl}methyl)-1H-1,2,4-triazol-5-yl]ethyl}methanesulfonamide]	0.64 nM	75.6	48 nM
